For orientation: IC50 means the concentration needed to halve the response being measured.

This is an account of results in ChEMBL document CHEMBL5726747, “Substituted pyrido[3,4-d]pyrimidines and pyrido[4,3-d]pyrimidines as p70S6K inhibitors” (2019).

The target of test [1] is Ribosomal protein S6 kinase beta-1 (Homo sapiens, UniProt P23443, T412E). The test can be described thus: p70S6K Enzyme Assay: p70S6K inhibitor compounds were diluted and plated in 96 well plates. A reaction mixture including the following components were then added to the compound plate to initiate the enzyme reaction: p70S6K (3 nM, T412E mutant, Millipore) was mixed with 24 μM ATP in an assay buffer containing 100 mM Hepes (pH 7.5), 5 mM MgCl2, 1 mM DTT, 0.015% Brij and 1 μM of the substrate peptide FITC-AHA-[…]-OH (derived from the S6 ribosomal protein sequence, FITC=fluorescein isothiocyanate, AHA=6-aminohexanoic acid). The reaction was incubated for 90 min at 25° C., before the addition of 10 mM EDTA to stop the reaction. The proportion of substrate and product (phosphorylated) peptide was analyzed on a Caliper Life Sciences Lab Chip 3000, using a pressure of −1.4 psi, and upstream and downstream voltages of −3000 and −700, respectively. Product peaks were resolved before substrate peaks on the resulting chromatograms. To assess the inhibitory potential of the compounds, IC50 values were determined, as shown above.

In test [2] the target is RAC-alpha serine/threonine-protein kinase (Homo sapiens, UniProt P31749). The test can be described thus: AKT/PKB Kinase Assay: In order to measure AKT inhibition in the Caliper Life Sciences LC3000, a TTP Mosquito liquid handling instrument was used to place 125 nl of the appropriate concentration of inhibitor in 100% DMSO (for a dose response curve calculation) into each well of a 384-well plate. To this reaction, the following components were added to a final volume of 12.5 μl: 0.1 ng/μl His-AKT (Full Length) (Invitrogen, Part # P2999, Lot #641228C); 160 μM ATP (Fluka, 02055); 1 mM DTT (Sigma, D0632); 1 mM MgCl2 (Sigma, M1028); 1 μM substrate peptide (sequence FITC-AHA-[…]-NH2), synthesized by Tufts Peptide Synthesis service; 100 mM HEPES pH 7.5 (Calbiochem, 391338); and 0.015% Brij-35 (Sigma, B4184).The reaction was incubated for 90 min at 25° C., and then stopped by the addition of 70 μl of Stop buffer (100 mM HEPES pH 7.5, 0.015% Brij-35, 10 mM EDTA (Sigma, E7889)). The plate was read on a Caliper LC 3000 in an Off-Chip mobility shift assay format, using the following parameters for a 12-sipper chip: screening pressure −2.3 psi, upstream voltage −500, and downstream voltage −3000. These conditions cause unphosphorylated substrate and phosphorylated product peptide to resolve as separate peaks allowing direct measurement of percentage of conversion of substrate to product. The percent conversion was plotted against concentration of inhibitor to produce a sigmoidal dose response curve, from which an IC50 was calculated.
Chain of RAC-alpha serine/threonine-protein kinase (P31749 whole entry): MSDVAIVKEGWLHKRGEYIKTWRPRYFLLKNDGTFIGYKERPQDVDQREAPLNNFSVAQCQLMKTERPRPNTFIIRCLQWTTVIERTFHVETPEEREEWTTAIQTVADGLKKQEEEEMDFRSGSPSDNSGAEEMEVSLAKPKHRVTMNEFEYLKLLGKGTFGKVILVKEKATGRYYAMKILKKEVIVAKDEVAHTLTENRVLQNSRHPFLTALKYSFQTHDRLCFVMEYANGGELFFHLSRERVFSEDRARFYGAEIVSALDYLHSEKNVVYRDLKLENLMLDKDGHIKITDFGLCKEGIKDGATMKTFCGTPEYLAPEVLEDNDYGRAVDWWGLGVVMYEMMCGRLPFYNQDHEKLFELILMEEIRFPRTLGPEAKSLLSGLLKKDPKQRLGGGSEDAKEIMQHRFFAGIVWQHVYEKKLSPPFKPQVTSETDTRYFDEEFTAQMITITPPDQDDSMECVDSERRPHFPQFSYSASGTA

Chain of Ribosomal protein S6 kinase beta-1 (P23443 whole entry T412E): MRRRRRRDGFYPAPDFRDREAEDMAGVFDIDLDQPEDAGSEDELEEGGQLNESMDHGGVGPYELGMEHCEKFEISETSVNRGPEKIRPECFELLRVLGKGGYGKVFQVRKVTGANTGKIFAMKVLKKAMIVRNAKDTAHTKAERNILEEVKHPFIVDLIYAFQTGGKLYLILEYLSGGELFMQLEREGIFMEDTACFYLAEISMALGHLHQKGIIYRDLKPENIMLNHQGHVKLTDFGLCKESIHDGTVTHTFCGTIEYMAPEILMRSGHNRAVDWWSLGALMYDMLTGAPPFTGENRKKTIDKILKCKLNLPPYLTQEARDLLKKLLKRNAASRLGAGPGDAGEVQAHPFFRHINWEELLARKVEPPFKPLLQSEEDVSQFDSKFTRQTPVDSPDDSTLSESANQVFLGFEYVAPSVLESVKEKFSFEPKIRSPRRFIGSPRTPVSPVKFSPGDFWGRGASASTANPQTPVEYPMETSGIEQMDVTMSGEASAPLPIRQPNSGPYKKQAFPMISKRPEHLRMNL

Consider `CNC[C@@H](Nc1ncnc2c(C(N)=O)ccnc12)c1ccc(F)c(Cl)c1`, for which the IC50 in test [1] and in test [2] was < 25 nM each time.
With `NC(=O)c1ccnc2c(N[C@H](CN3CCC3)c3ccc(F)c(C(F)F)c3)ncnc12`, the IC50 in test [1] and in test [2] was < 25 nM each time.
In the case of `CN(C)C[C@@H](Nc1ncnc2c(C(N)=O)ccnc12)c1ccc(Cl)c(F)c1`, the IC50 in test [1] is < 25 nM.
Regarding `NC(=O)c1ccnc2c(N[C@H](CN3CCC3)c3ccc(F)c(C(F)(F)F)c3)ncnc12`, the IC50 in test [1] and in test [2] was < 25 nM in each case.
Regarding `CCNC[C@@H](Nc1ncnc2c(C(N)=O)ccnc12)c1ccc(F)c(Cl)c1`, the IC50 in test [1] was < 25 nM.
The same measure, in the same setting: then `CCNC[C@@H](Nc1ncnc2c(C(N)=O)ccnc12)c1ccc(F)c(Br)c1`, with < 25 nM.
Turning to `N#Cc1ccc([C@@H](CN2CCC2)Nc2ncnc3c(C(N)=O)ccnc23)cc1Cl`, the IC50 in test [1] and in test [2] was < 25 nM in each case.
